# Source: patent US6818621B2, “Osteopontin-derived chemotactic and inhibitory agents and uses therefor” (Children's Medical Center Corporation, priority 1999, dated 2004)
# Marks after values point to notes of the source that are not given here.
# Legend:
# [1] = test system: MDA-MB-231 cells (CD44+ human breast adenocarcinoma cells); assay: Chemotactic chamber (Boyden) assay, migration through polycarbonate filters; format: cell-based; details: for MI buffer / MI: Table 4; for MI buffer: cells migrating in response to peptide divided by cells migrating in response to buffer; for MI: migratory index; for mean number of migrating cells per six random high powered fields: Table 2; for chemotactic response of MDA-MB231 (in words): p<0.01, 200 ng of bone OPN; for mean number of migrating cells per random high power field: Table 1, 4 hours; for Migratory Index: Table 3, cells migrating in response to peptide/cells migration in response to LVLDPK
# Description: Each peak was then tested for mediation of chemotaxis or for its ability to inhibit OPN mediated chemotaxis using the chemotactic assay as follows (see e.g., Weber et al. (1996) Science 271:509-512). Briefly, uncoated polycarbonated filters (pore size […] ) were used to separate the upper and lower chambers of chemotactic wells. 1×10^3 MDA-MB-231 cells (CD44^+human breast adenocarcinoma cells) were added to the upper chamber and incubated in the presence or absence of the indicated 50 pmols peptide. After 4 hours, the filters were removed, fixed in methanol arid stained with hematoxylin and eosin. Cells which have responded to the peptide, migrate to various areas of the lower surface and can be counted microscopically. Each data point is reported as the mean number of migrating cells per random high power field.
# Peptide 51 was identified as being chemotactic. The peptide was sequenced using a gas-phase sequenator and determined to have the sequence LVLDPK (SEQ ID NO:1). To confirm that chemotaxis was due to this peptide, a 16 amino acid peptide spanning the chemotactic sequence in OPN was synthesized and tested for its chemotactic properties. The resulting peptide, SP64 has the sequence KFHSHKDKLVLDPKSK (SEQ ID NO:2) and containing the chemotactic sequence from residues 9-14. 2×10^4 MDA-MB-231 cells were assayed for chemotactic response to the indicated peptides as described above. Each data point is reported as the mean number of migrating cells per six random high powered fields ± standard error of the mean. Each experiment was repeated four times.
# To test the amino acid specificity for chemotactic response several substitutions were created in the chemotactic sequence and the new peptides tested for their ability to induce chemotaxis. Data are expressed as migratory index (cells migrating in response to peptide/cells migration in response to LVLDPK, SEQ ID NO:1).
# (§1) To evaluate the potential of peptide analogues to inhibit OPN induced chemotaxis, 100 nmoles of peptide was added to the lower compartment and the response of these cells to OPN was determined as described. MI(buffer) was calculated by dividing the number of cells migrating in response to peptide by the number of cells migrating in response to buffer. MI(inhibitory) equals the number of cells migrating towards OPN in the presence of buffer divided by the number migrating towards OPN in the presence of peptide.
# MDA-MB-231 cells [2] = assay: Inhibition of OPN induced chemotaxis in the chemotactic chamber assay; format: cell-based, human; details: for MI inhibitory: Table 4, 100 nmoles of peptide, cells migrating towards OPN in presence of buffer divided by number migrating towards OPN in presence of peptide
# Description: as §1
# MDA-MB-231 cells [3] = assay: Apoptosis by TUNEL (In situ Cell Death Detection Kit); format: cell-based, human; details: 100 nM, 12 hours
# Description: (§2) One million MDA-MB-231 cells were incubated with 100 nM of the OPN, LVVDPK (SEQ ID NO:8), Ac-MLDP (SEQ ID NO:23) or Ac-HKDKMLDP (SEQ ID NO:24) in DME containing 10% FBS in a humidified atmosphere of 5% CO2 at […]. After 12 hours, Caspase 8 and the % of apoptotic cells were determined. Caspase was determined by a fluorescent assay using Chemicon's FLICE/Caspase-8 Fluorometric Protease Assay Kit as described by the manufacturers. Apoptosis was determined using TUNEL using the “In situ Cell Death Detection Kit” (Boehringer-Mannheim, Germany).
# Caspase 8 = assay: FLICE/Caspase-8 Fluorometric Protease Assay; format: cell-based, human; details: 100 nM, 12 hours, MDA-MB-231 cells
# Description: as §2
# peritoneal exudate cells = assay: In vivo cellular migration after intraperitoneal injection of osteopontin, peritoneal exudate flow cytometry; set-up: species or system Mice
# Description: Mice were injected intraperitoneally with varying dosages of K7 osteosarcoma-derived osteopontin. All injection volumes were 200 μl. Injections of vehicle alone (PBS) served as negative controls and vehicle plus 20 μg lipopolysaccharide (LPS) injections served as positive controls for elicitation of peritoneal exudates.
# Mice were sacrificed by CO2-asphyxiation at varying times following injection. Immediately after sacrifice, peritoneal exudate was recovered by intraperitoneal injection and recovery of 10 mL PBS. The lavage procedure was performed twice on each mouse. Following this, red blood cells were lysed by hypotonic lysis with ACK lysis buffer (0.15 M NH4Cl, 1.0 mM KHCO3, 0.1 mM Na2EDTA, pH 7.4) for 5 minutes at room temperature, and the preparation was washed in DMEM, 5% FBS. Cells were resuspended in DMEM, 5% FBS for fluorescent antibody staining.
# Each sample of cells to be analyzed for specific surface markers was suspended in DMEM, 5% FBS at a concentration of 0.2 to 1 million cells in 50 μl. Fluorescence-labeled antibodies were added at 1 μg/1×10^6 cells, and incubated with the cells for 30 minutes at 4° C. Samples were washed twice with 200 μl of PBS following antibody staining and fixed with 500 μl of 2% paraformaldehyde in PBS. Peritoneal exudate cells were analyzed by dual-color flow cytometry for expression of CD44 (PE), CD 11 b (Mac-1, FITC, macrophage marker), B220 (FITC, B-cell marker), and CD3 (FITC, T-cell marker). All antibodies were purchased from PharMingen and flow cytometric analysis was done using a Coulter EPICS flow cytometer. Controls for non-specific binding and single color controls were included.
# To further characterize the effects of osteopontin on in vivo cellular migration, a time course experiment was performed using an osteopontin dosage that elicited peak levels of infiltration. The total cellular response to osteopontin administration peaked sharply at 4 to 6 hours. This is likely to be due to a high rate of clearance from the peritoneal cavity.
# [4] = test system: cells recruited into the peritoneum; assay: In vivo chemotaxis after injection of peptide into the peritoneal cavity, lavage and flow cytometry; set-up: species or system C57 black mice; details: for induction ratio, Total / induction ratio, Total CD44 / induction ratio, B-lymphocytes / induction ratio, T-lymphocytes / induction ratio, Monocytes: 25 nmols i.p., 6 hours, normalized to PBS-injected mouse, average of 6 mice; for induction ratio, B-lymphocytes: B220+; for induction ratio, T-lymphocytes: CD3+; for induction ratio, Monocytes: Mac-1+
# Description: Since the peptide LVLDPK (SEQ ID NO:1) was chemotactic to tumor cells and macrophages in vitro, we tested whether the peptide was chemotactic in vivo. 25 nmols of the peptide were injected into the peritoneal cavity of C57 black mice. After six hours the cells recruited into the peritoneum were recovered by lavage and identified by flow cytometry. Titration of soluble peptides into the peritoneum induces a cellular infiltrate in a dose dependent manner. The induction ratio is the number of cells of a particular lineage recovered from the peritoneum of a peptide-injected mouse (e.g., 6 hours after injection) normalized for each experiment to the number of cells of the same lineage recovered from the peritoneum of a PBS-injected mouse. Cell numbers for PBS-injected mice ranged from […] to 646,000 cells total; 182,300 to 325,000 CD44^+ cells; 224,000 to 496,000 […] cells; 31,300 to 76,000 B220^+ cells; 18,100 to 21,100 CD3^+ cells), representing the induction of macrophages (Mac-1^+), B cells (B220^+), and T cells (CD3^+). Values represent an average of 6 mice.
# macrophage = assay: Inhibition of macrophage recruitment by osteopontin, C5a and fibronectin; details: C5a and by fibrorectin
# [5] = labelled agent in lower chamber, Ab64 in upper chamber
# [6] = labelled agent in lower chamber, OPN in upper chamber
# [7] = labelled agent in lower chamber, PBS in upper chamber, 2×10^4 cells
# [8] = labelled agent in lower chamber, SP64 in upper chamber
# [9] = labelled agent in lower chamber, pep 51 in upper chamber
# [10] = labelled agent in upper chamber, PBS in lower chamber
Substance,MI buffer [1],MI [1],MI inhibitory (MDA-MB-231 cells [2]),"mean number of migrating cells per six random high powered fields [1, 5]","mean number of migrating cells per six random high powered fields [1, 6]","mean number of migrating cells per six random high powered fields [1, 7]","mean number of migrating cells per six random high powered fields [1, 8]","mean number of migrating cells per six random high powered fields [1, 9]","mean number of migrating cells per six random high powered fields [1, 10]",chemotactic response of MDA-MB231 (in words) [1],"induction ratio, Total [4]","induction ratio, Total CD44 [4]","induction ratio, B-lymphocytes [4]","induction ratio, T-lymphocytes [4]","induction ratio, Monocytes [4]",Migratory Index [1],other results
LVVDPK (OTHER INFORMATION: Description of Artificial Sequence:Synthetic Peptide) [pepA′],9,1,8,,,,,,,,,,,,,,apoptosis (in words) (MDA-MB-231 cells [3]): virtually undetectable; Caspase 8 activity (in words) (Caspase 8): virtually undetectable
"OPN: osteopontin protein; bone OPN in vitro, K7 osteosarcoma-derived osteopontin in Example 3",,,,36 cells per six random high powered fields,16 cells per six random high powered fields,214 cells per six random high powered fields,187 cells per six random high powered fields,44 cells per six random high powered fields,23 cells per six random high powered fields,stimulated the chemotactic response,11.3,9.6*,1.2,1,10.4*,,"number of CD3+ and B220+ cells (peritoneal exudate cells; 6 hours after injection): only marginally elevated; number of Mac-1+ cells in the infiltrate (peritoneal exudate cells; 6 hours after injection, over basal levels): increased fivefold over basal levels; peritoneal cells recovered (peritoneal exudate cells; OPN alone): 1.16 million cells; number of CD44+ Mac1+ cells (peritoneal exudate cells; at a dose around 7 μg): nearly sixfold reduction; dose of peak response of the cellular infiltrate (peritoneal exudate cells; intraperitoneal, 6 hours after injection): around 13 μg; cellular infiltrate (in words) (peritoneal exudate cells; titration into the peritoneum, 6 hours after injection): dose dependent increase"
"LVLDPK (OTHER INFORMATION: Description of Artificial Sequence:Synthetic Peptide) [peptide 51, chemotactic tryptic peptide of osteopontin]",10,1,10,21 cells per six random high powered fields,48 cells per six random high powered fields,248 cells per six random high powered fields,109 cells per six random high powered fields,65 cells per six random high powered fields,6 cells per six random high powered fields,stimulated the chemotactic response,8.6*,7.9*,1.3,1.3,7.1*,1,"chemotactic activity (in words) [1]: chemotactic; mean number of migrating cells per random high power field ([1]; labelled peptide (50 pmols) in lower chamber, PBS in upper chamber, 1×10^3 cells): 68* cells per random high power field; mean number of migrating cells per random high power field ([1]; labelled peptide in lower chamber, peptide 49 in upper chamber): 83* cells per random high power field; mean number of migrating cells per random high power field ([1]; labelled peptide in lower chamber, peptide 50 in upper chamber): 56* cells per random high power field; mean number of migrating cells per random high power field ([1]; labelled peptide in lower chamber, peptide 51 in upper chamber): 32 cells per random high power field; mean number of migrating cells per random high power field ([1]; labelled peptide in lower chamber, peptide 52 in upper chamber): 78* cells per random high power field; mean number of migrating cells per random high power field ([1]; labelled peptide in lower chamber, peptide 53 in upper chamber): 62* cells per random high power field; mean number of migrating cells per random high power field ([1]; labelled peptide in upper chamber, PBS in lower chamber): 13 cells per random high power field; chemotactic activity in vivo (in words) ([4]; mouse, in vivo): chemotactic to macrophages in vivo"
VLEP (OTHER INFORMATION: Description of Artificial Sequence:Synthetic Peptide) [pepJ′],,,,,,,,,,,,,,,,0.1,inhibition of chemotaxis by peptide (in words) (MDA-MB-231 cells [2]; migratory index against peptide 51): inhibitory for chemotaxis; inhibition of macrophage recruitment (macrophage): inhibits macrophage recruitment
